Common to all, as to assay type: biochemical
One assay addresses T1, isolated human fXa (Homo sapiens, UniProt P00742).
T1 construct: The isolated active factor (e.g. thrombin, fXa) and its chromogen or fluorogen peptide-amide substrate are reacted; purchased SIGMA
The assay can be described thus: fXa inhibition in solution, amidolytic method on Bz-Ile-Glu-Gly-Arg-pNA chromogen substrate (Method M6). To be noted: Table 3; isolated human fXa, Bz-Ile-Glu-Gly-Arg-pNA; read-out: B: fXa inhibiting IC50. The method, then:
Anticoagulant activity (i.e. inhibition of the proteolytic reactions in the process) is measured by anticoagulant tests, e.g. in the thrombin time (TT), activated partial thromboplastin time (APTT) and prothrombin time (PT) tests [E. J. W. Bovie et al., Mayo Clinic Laboratory Manual of Haemostasis; W. B. Saunders Co., Philadelphia (1971)]. Plasma, inhibited in spontaneous coagulation, e.g. citrate-plasma, is made to coagulate and the required coagulation time is measured. Upon the action of anticoagulants the coagulation time is prolonged proportionally to the inhibition of the reaction(s) in the process. The anticoagulant effect can be characterised by the substance concentration required to prolong the coagulation time twofold compared to the control (IC50). The effect of anticoagulants on individual coagulant proteases is measured by the amidolytic method [R. Lottenberg et al., Methods in Enzymol. 80, 341 (1981); G. Cleason, Blood Coagulation and Fibrinolysis 5, 411 (1994)]. The isolated active factor (e.g. thrombin, fXa) and its chromogen or fluorogen peptide-amide substrate are reacted in the presence or absence of the inhibitor, resp. The enzyme inhibiting action is characterised by the inhibitory constant (IC50) measured during amidolysis.
The in vitro anticoagulant effects of the compounds of general formula (I) was measured by the prothrombin time (PT), activated partial thromboplastin time (APTT) and thrombin time (TT) tests [D. Bagdy et al., Thromb. Haemost. 67, 325 (1992)]. The fxa-inhibiting effect of the compounds was also determined using the Bz-Ile-Glu-Gly-Arg-pNA chromogen substrate (see method M6).
Determination of Factor Xa Inhibition in Solution on a 96-well Microtitre Plate
a) By means of phosphate buffer (0.1M sodium phosphate and 0.05M sodium chloride, pH=7.4) 1.3 E/ml solution is prepared from human factor Xa (SIGMA), and 0.1-1.0-10 and 100 μg/ml solutions from the peptide inhibitors. The Bz-Ile-Glu-Gly-Arg-pNA substrate is used in distilled water solution ([…]).
b) From the control and the peptide inhibitor solutions (3 parallel samples of each concentration) 30-30 μl aliquots are placed into the wells. 30 μl of factor Xa, 90 μl of buffer and 150 μl of substrate are added to the peptide solution and the extinction is determined after 10 min. at 405 nm. Thereafter the steps are the same as in M2/c.

Another assay deals with T2, clot-bound fXa (Homo sapiens, UniProt P00742).
T2 construct: from tissue; host or cells: clot of recalcified human platelet-rich plasma
The assay can be described thus: inhibition of plasma clot-bound factor Xa (Methods M1, M2). To be noted: text b187, well below. The method, then:
(§1) Plasma-clot was obtained by recalcificating platelet-rich human plasma, and fibrin gel by clotting human fibrinogen with human thrombin. For the activity measures of fXa and thrombin Z-D-Arg-Gly-Arg-pNA or Tos-Gly-Pro-Arg-pNA substrates were used in agreement with Methods M1-M3.
Preparation of Clots from Human Plasma
a) Platelet-rich plasma is prepared by centrifuging a 9:1 mixture of human blood and 3.8% sodium citrate solution for 5 min. at 240×g.
b) 200 μl platelet-rich plasma and 80 μl 40 mM CaCl2 solution are allowed to stand at room temperature for 1 hour. The thus-formed clot is washed with 6×2 ml of 0.9% NaCl solution with gentle stirring to remove the residual enzymes (thrombin and factor Xa). The washing medium is assayed for thrombin-like activity as follows:
c) To 400 μl of washing medium 100 μl of 1 mM Tos-Gly-Pro-Arg-pNA substrate solution is added, the mixture is incubated for 30 min at 37° C., then the reaction is stopped with 100 μl of 50% acetic acid. From this mixture 150 μl aliquots are applied onto a 96-well microtitre plate and the extinction coefficients are measured at 405 nm (ELISA READER SLT Laborinstrument GmbH, Austria). […]
c) From each reaction vessel 150 μl is applied onto a 96 well microtitre plate and extinction coefficients are measured at 405 nm (ELISA READER SLT Laborinstrument GmbH, Austria). […]

In the next assay the target is plasmin (PL) (Homo sapiens, UniProt P00747). In words: fibrin-plate method, plasmin. From the text: The inhibitory effect of the new compounds of the invention on plasmin (PL) as well as on plasmin formation induced by tissue plasminogen activator (tPA) and urokinase (UK) was examined by the fibrin-plate method [D. Bagdy et al.: Thromb. Haemost. 67, 325 (1992)]. Compounds C1 and C5 served as controls. […] V. Jackson et al.: J. Cardiovasc. Pharmacol. 21, 587 (1993))]. In Table 4 the results obtained with the new compounds 1 and 2 as well as those with controls C1 and C5 are presented as an example.

For assay [1], the target named is T3, fibrin gel-bound thrombin (Homo sapiens, UniProt P00734).
T3 construct: purchased SIGMA
In words: inhibition of fibrin gel-bound thrombin (Methods M4, M5). To be noted: human fibrinogen clotted with human thrombin; Tos-Gly-Pro-Arg-pNA substrate. As to the method: as §1
Preparation of Fibrin Clots
a) To each reaction vessel 200 μl of human fibrinogen (SIGMA), 25 μl of 25 NIH/E/ml human thrombin (SIGMA) and 40 μl of 100 mM CaCl2 solution is placed and the mixtures are allowed to stand for 1 hour at 20-22° C. The fibrin clots are washed with isotonic NaCl-solution (3×2 ml) under gentle stirring to remove traces of thrombin and sedimented for 5 min. The effectiveness of the washing can be checked by the method M1/c.
Determination of Inhibition of Fibrin-clot Bound Thrombin
a) 0.1-1.0-10 and 100 μg/ml solutions are made from the peptide inhibitors with Hepes/NaCl buffer (0.001 M Hepes and 0.1 M NaCl, pH=7.4).
b) Measurements are continued according to M3/b.

plasmin (PL), sequence (P00747 581-810 limits assumed, species assumed): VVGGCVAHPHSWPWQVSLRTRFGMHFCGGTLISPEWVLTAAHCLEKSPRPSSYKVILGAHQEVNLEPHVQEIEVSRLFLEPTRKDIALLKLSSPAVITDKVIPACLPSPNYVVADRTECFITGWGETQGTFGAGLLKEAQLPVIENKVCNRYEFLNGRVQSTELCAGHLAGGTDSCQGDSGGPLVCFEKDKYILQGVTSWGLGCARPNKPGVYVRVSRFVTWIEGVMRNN
plasmin (PL), sequence (P00747 97-580 partner limits assumed, species assumed): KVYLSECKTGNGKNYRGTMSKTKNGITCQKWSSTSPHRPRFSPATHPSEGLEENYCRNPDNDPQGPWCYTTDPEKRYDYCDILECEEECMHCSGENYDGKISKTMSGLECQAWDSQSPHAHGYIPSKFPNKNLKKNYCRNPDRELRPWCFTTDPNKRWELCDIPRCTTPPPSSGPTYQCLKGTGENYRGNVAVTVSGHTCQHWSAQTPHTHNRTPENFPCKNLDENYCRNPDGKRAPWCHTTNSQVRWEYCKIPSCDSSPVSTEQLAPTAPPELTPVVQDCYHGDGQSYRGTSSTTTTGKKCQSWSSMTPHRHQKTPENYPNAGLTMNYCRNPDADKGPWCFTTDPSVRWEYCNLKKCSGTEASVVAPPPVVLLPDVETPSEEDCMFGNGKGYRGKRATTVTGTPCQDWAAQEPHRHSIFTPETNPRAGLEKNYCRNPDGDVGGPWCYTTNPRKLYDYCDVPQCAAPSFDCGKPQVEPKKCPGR
T2 sequence (P00742 235-488 limits assumed): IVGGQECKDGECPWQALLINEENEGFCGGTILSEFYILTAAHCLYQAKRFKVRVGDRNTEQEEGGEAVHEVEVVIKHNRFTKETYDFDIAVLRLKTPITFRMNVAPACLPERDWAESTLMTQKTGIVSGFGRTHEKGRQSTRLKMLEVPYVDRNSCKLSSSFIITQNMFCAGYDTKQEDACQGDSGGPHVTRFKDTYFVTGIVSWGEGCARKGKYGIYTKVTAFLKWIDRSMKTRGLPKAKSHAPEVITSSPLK
T2 sequence (P00742 41-179 partner limits assumed): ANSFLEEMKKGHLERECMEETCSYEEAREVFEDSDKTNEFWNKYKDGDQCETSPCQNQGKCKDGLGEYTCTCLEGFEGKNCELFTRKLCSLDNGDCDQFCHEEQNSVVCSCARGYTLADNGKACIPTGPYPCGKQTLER
T1 sequence (P00742 235-488 limits assumed): as the sequence (P00742 235-488 limits assumed) above
T1 sequence (P00742 41-179 partner limits assumed): as the sequence (P00742 41-179 partner limits assumed) above

In general, IC50 refers to the concentration that gives 50% inhibition. In the case of `CCOC(=O)N[C@H](CC1CCC1)C(=O)N1CCC[C@H]1C(=O)N[C@H](C=O)CCCNC(=N)N` [Example 1, Ethoxycarbonyl-3-cyclobutyl-D-alanyl-L-prolyl-L-arginine aldehyde], the IC50 is 40 nM at isolated human fXa; under 1000 nM at clot-bound fXa; 39000 nM on plasmin (PL) (fibrin plate, hydrolysed area reduced to 50% of control); 320 nM in assay [1]. Besides, at plasmin (PL) (related to the activity of C1 (1/IC50 = 1)), the “B: relative efficiency, PL” value turned out to be 1.4. The “activity against PL, times lower than that of compound C5” value on plasmin (PL) (text b147, first of three enzymes) came to 3.2 times.

For the origin of these results see patent US6235707A, “Anticoagulant peptidyl-arginine aldehyde derivatives” (Gyogyszerkutato Intezet Kft., priority 1996, dated 2001).
